Marks after values point to notes of the source that are not given here.
Legend:
Format in all cases: in vivo
[1] = tested on: Pinus halepensis cuttings; assay: rooting and root development in pine cuttings; settings: 400 ppm IBA potassium salt + 5 ppm conjugate, 4 hours dip; 12 weeks
Method: The effects of exemplary D-amino acid conjugates of 4-CPA (Compounds to and Is) on rooting in Pinus halepensis cuttings were compared with those of 2-DP-glycine methyl ester conjugate (2-DP-Gly). Rooting mature pine cuttings (i.e., cuttings that are taken from trees more than 4 years old) is very difficult.
Apical cuttings were taken from 7-year-old trees, stored for 4 weeks at 4° C., and treated by dipping the cutting bases for 4 hours in the following solution: 400 ppm IBA potassium salt+5 ppm tested conjugate+0.1% Amistar™ fungicide (250 grams/liter azoxystrobin). The cuttings were evaluated after 12 weeks.

[2] = tested on: Eucalyptus brachyphylla cuttings; assay: rooting of Eucalyptus brachyphylla cuttings; settings: for mean root number per cutting, E. brachyphylla: K-IBA alone or with 100 μM compound; for mean root length, E. brachyphylla, relative to IBA alone, in words: K-IBA with 100 μM compound
Method: (§1) In order to investigate cloning of productive eucalyptus trees from cuttings, branches were excised from mature Eucalyptus x trabutii and Eucalyptus brachyphylla trees the field (in Kfar Pines, Israel)—selected based on their exceptional nectar production and honeybee attraction—placed in a humidified cooler box and brought to a climate-controlled greenhouse within 2 hours. Each cutting, 7 cm long, included three nodes with only two leaves remaining at its apical end. Two-thirds of each blade was excised to minimize evapotranspiration. The cutting bases were submerged for 1 minute in 6 grams/liter indole-3-butyric acid potassium salt (K-IBA), optionally supplemented with Compound 1s or 1t at a concentration of 100 μM. In addition, the leaves were sprayed with 100 μM of each compound in the presence of 0.05% Triton X-100 surfactant. Stock solutions of Compounds 1s and 1t were at a concentration of 100 mM in DMSO. The cuttings were planted in rooting medium containing peat, vermiculite and polystyrene flakes at a ratio of 1:2:3 respectively, on a heated rooting table under 90% humidity. Fungicides were applied to the rooting media on a weekly basis. Rooting percentage, number of roots per cutting and root length were measured after 1 and 2 weeks and after 1 and 2 months.

[3] = tested on: Eucalyptus x trabutii cuttings; assay: rooting of Eucalyptus x trabutii cuttings; settings: for mean root number per cutting, E. x trabutii: K-IBA alone or with 100 μM compound; for callus formation in E. x trabutii / mean root number and mean root length, E. x trabutii, relative to IBA alone, in words / rooting rate of E. x trabutii compared with IBA alone, in words: K-IBA with 100 μM compound
Method: as §1

[4] = tested on: argan (Argania spinosa) cuttings; assay: rooting of argan cuttings; settings: 100 μM conjugate with 6000 ppm IBA
Outline: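 Cuttings in a commercial nursery were treated with 100 μM conjugate plus 6000 ppm IBA. Controls were talc with 8000 ppm IBA and fungicide (T-8), or 6000 ppm IBA alone.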

[5] = tested on: cuttings from mature Eucalyptus grandis trees; assay: rooting of cuttings from mature Eucalyptus grandis trees; settings: 100 μM compound by submerging or spraying, with 6000 ppm IBA
[6] = tested on: Arabidopsis seedlings; assay: split petri dish assay, separate shoot or root application in etiolated Arabidopsis seedlings; settings: 10 μM; for adventitious root formation, exposure of shoots compared to exposure of roots / lateral root formation, shoot application compared with root application: split dish
From the text: The observation that AR enhancement in Eucalyptus cuttings was higher when 4-CPA conjugates were applied also to the leaves (as described in Example 3) prompted further investigation into the functions of shoot-derived 4-CPA. To this end, 4-CPA or Compounds 1p and it were applied specifically to roots or shoots of five-day old etiolated Arabidopsis seedlings using a split petri dish (as depicted in FIG. 26) and the effect on root elongation, lateral root (LR) formation and adventitious root (AR) formation was evaluated.
Arabidopsis plants were germinated and grown in the dark for 5 days, then then transferred to petri dishes with a partition in the middle. Each half of these plates contained either medium alone or with 10 μM of 4-CPA or Compound 1p or 1tl. The etiolated seedlings were put on the plates with their collet region on the partition such that either the hypocotyl and cotyledons, or the root or both were in touch with the medium containing the tested compound. Adventitious roots and lateral roots were counted and the length of the primary root was measured after a week.

Row | Structure (SMILES) | Degree of root development Medium (%) [1] [%] | Degree of root development Weak (%) [1] [%] | Degree of root development Well-developed (%) [1] | Rooting rate (%) [1] [%] | mean root number per cutting, E. brachyphylla [2] | mean root length, E. brachyphylla, relative to IBA alone, in words [2] | mean root number per cutting, E. x trabutii [3] | callus formation in E. x trabutii [3] | mean root number and mean root length, E. x trabutii, relative to IBA alone, in words [3] | rooting rate of E. x trabutii compared with IBA alone, in words [3] | rooting percentage in argan compared with IBA alone, in words [4] | rooting in combination with IBA compared with IBA alone, in words [5] | effect on root growth of application to the shoot compared with application directly to the root ([6]; 24 hours on split dish) | adventitious root formation, exposure of shoots compared to exposure of roots [6] | lateral root formation, shoot application compared with root application [6]
1 | COC(=O)[C@@H](Cc1c[nH]c2ccccc12)NC(=O)COc1ccc(Cl)cc1 [Compound 1s, 4-CPA-D-Trp] | 0 | 6.2 | 81.3* % | 92.9 | about 2 | enhanced mean root length | about 5 | no calluses were observed | no apparent effect | considerably higher | considerably higher rooting percentages | – | – | – | –
2 | COC(=O)[C@H](Cc1c[nH]c2ccccc12)NC(=O)COc1ccc(Cl)cc1 [Compound 1t, 4-CPA-L-Trp] | – | – | – | – | about 2 | enhanced mean root length | about 5 | no calluses were observed | no apparent effect | considerably higher | considerably higher rooting percentages | at least as potent as that of their corresponding D-amino acid conjugates | comparable | significantly more adventitious root formation | inhibited lateral root formation more efficiently than application to roots
3 | O=C(O)COc1ccc(Cl)cc1 [Compound 4-CPA, 4-chloro-phenoxyacetic acid, reference compound] | – | – | – | – | – | – | – | – | – | – | – | considerably less effective | – | significantly more adventitious root formation | inhibited lateral root formation more efficiently than application to roots

From US20220030866A1, “CONJUGATES OF AUXIN ANALOGS” (The State of Israel, Ministry of Agriculture & Rural …, priority 2019, published 2022)
